In series [1] the test system is S. pyogenes A65. In words: In vitro antibacterial activity, twofold agar-dilution MIC. The note with it: Streptococcus pyogenes; S. pyogenes A65, Gram +; calculated for free base; 20-hour incubation at 37° C; read-out: minimum inhibitory concentration (MIC). It counts as cell-based. The method, then: (§1) The antibacterial activity in vitro is show in Table 1. The numbers in the table show minimum inhibitory concentrations (MIC) (μg/ml), calculated for free base. The minimum inhibitory concentration was determined by the twofold agar-dilution method, which was recommended by Japan Society of Chemotherapy (Chemotherapy, 29(1), 76(1981)), using Muller-Hinton agar. One loopful of an overnight culture of test organisms in Mueller-Hinton broth was inoculated onto 10-ml drug-containing agar layers in petri dishes. Bacterial inocula contained approximately 10^6 colonyl-formingunits. Bacterial growth was observed after 20-hour incubation at 37° C. The MIC was defined as the lowest drug concentration which prevented visible bacterial growth.

Series [2] concerns E. coli P-5101. The series is described as above. It counts as cell-based. To be noted: Escherichia coli, P5101; E. coli P-5101, Gram -; calculated for free base; 20-hour incubation at 37° C; read-out: minimum inhibitory concentration (MIC). The protocol:
as §1

For series [3], the system named is S. aureus Smith. The series is described as above. It counts as cell-based. The note with it: Staphylococcus aureus, Gram +, calculated for free base, 20-hour incubation at 37° C, read-out: minimum inhibitory concentration (MIC). The method, then:
as §1

The test system of series [4] is M. lacunata P-7102. Described as above. Format: cell-based. To be noted: M. lacunata P-7102, Gram -; calculated for free base; 20-hour incubation at 37° C; read-out: minimum inhibitory concentration (MIC). The method, then:
as §1

Series [5] concerns P. rettgeri IFO 3850. Described as above. To be noted: Providencia rettgeri, IFO3850; P. rettgeri IFO 3850, Gram -; calculated for free base; 20-hour incubation at 37° C; read-out: minimum inhibitory concentration (MIC). Format: cell-based. The protocol:
as §1

For series [6], the system named is E. coli P-51209. Described as above. Format: cell-based. To be noted: Escherichia coli, P51209; E. coli P-51209, Gram -; calculated for free base; 20-hour incubation at 37° C; read-out: minimum inhibitory concentration (MIC). The protocol:
as §1

The subject of series [7] is S. epidermidis 8. Described as above. Format: cell-based. To be noted: Staphylococcus epidermidis; S. epidermidis 8, Gram +; calculated for free base; 20-hour incubation at 37° C; read-out: minimum inhibitory concentration (MIC). The method, then:
as §1

For series [8], the system named is E. coli P-51208. The description is as above. It counts as cell-based. The note with it: Escherichia coli, P51208; E. coli P-51208, Gram -; calculated for free base; 20-hour incubation at 37° C; read-out: minimum inhibitory concentration (MIC). The method, then: as §1
For series [9], the system named is S. aureus 50774. Described as above. To be noted: Staphylococcus aureus; S. aureus 50774, Gram +; calculated for free base; 20-hour incubation at 37° C; read-out: minimum inhibitory concentration (MIC). It counts as cell-based. The method, then:
as §1

Series [10] has as its system K. pneumoniae 13. The series is described as above. It counts as cell-based. To be noted: Klebsiella pneumoniae; K. pneumoniae 13, Gram -; calculated for free base; 20-hour incubation at 37° C; read-out: minimum inhibitory concentration (MIC). The method, then:
as §1

In series [11] the test system is S. aureus 80. The series is described as above. It counts as cell-based. The note with it: Staphylococcus aureus; S. aureus 80, Gram +; calculated for free base; 20-hour incubation at 37° C; read-out: minimum inhibitory concentration (MIC). The protocol:
as §1

The subject of series [12] is Streptococcus pyogenes A65. In words: In vivo efficacy against systemic infection in mice, S. pyogenes A65. Also on record: species or system mice (ddY-S). To be noted: A65, 168 h, intraperitoneal infection 3×10^7 cells, drug iv twice, immediately and 6 hours after infection, 7 days observation, calculated for free base, read-out: median effective dose (ED50). The protocol: Compounds were each dissolved in deionized water. Each of the solutions was intravenously (iv) administered to mice infected by each of the test organisms under the conditions shown hereinbelow, and the median effective dose (ED50) was calculated by probit analysis. The numerals in the table show ED50 (mg/kg) value, caluclated for free base. Experimental conditions: Mice: Male mice (ddY-S) weighing about 20 g Infection: Streptococcus pyogenes […] Intraperitoneal infection with 3×10^7 cells per mouse suspended in brain heart infusion broth. Medication: Twice, immediately and 6 hours after infection. Observation: For 14 days in the case of Staphylococcus aureus 50774. For 7 days in the case of Streptococcus pyogenes […].

Series [13] has as its system Staphylococcus aureus 50774. In words: In vivo efficacy against systemic infection in mice, S. aureus 50774. Also on record: species or system mice (ddY-S). The note with it: Staphylococcus aureus, 50774, 336 h, iv infection 5×10^8 cells, drug iv twice, immediately and 6 hours after infection, 14 days observation, calculated for free base, read-out: median effective dose (ED50). The method, then: Compounds were each dissolved in deionized water. Each of the solutions was intravenously (iv) administered to mice infected by each of the test organisms under the conditions shown hereinbelow, and the median effective dose (ED50) was calculated by probit analysis. The numerals in the table show ED50 (mg/kg) value, caluclated for free base. Experimental conditions: Mice: Male mice (ddY-S) weighing about 20 g Infection: Staphylococcus aureus 50774 Intravenous infection with 5×10^8 cells per mouse suspended in saline. Medication: Twice, immediately and 6 hours after infection. Observation: For 14 days in the case of Staphylococcus aureus 50774. For 7 days in the case of Streptococcus pyogenes […].

Series [14] is described as follows: Solubility in water. Format: physicochemical. To be noted: distilled water, 25° C overnight. The method, then: The sample was added to distilled water (10 ml) and the solution was shaken in the supersaturated state for 30 minutes. After incubation at 25° C. overnight, the solution was filtered with a microfilter. The filtrate was diluted with 0.1 N hydrochloric acid. The absorbance at 270 nm of the solution was measured and the concentration (μg/ml) of the sample was calculated from a calibration curve separately prepared.

In brackets after ≈: the same amount, converted by molar mass.

As a reminder, the ED50 is the dose that gives a 50% effect, or the effect in half of the subjects. As to `Cl.NC[C@@H]1CN(c2nc3c(cc2F)c(=O)c(C(=O)O)cn3C2CC2)C[C@@H]1Cl` (relative stereo) [2-cis.HCl, 7-(cis-3-aminomethyl-4-chloro-1-pyrrolidinyl)-1-cyclopropyl6-fluoro-1,4-dihydro-4-oxo-1,8-naphthyridine-3-carboxylic acid hydrochloride], the MIC was 0.025 µg/mL in series [1]; 0.0125 µg/mL in series [2]; 0.025 µg/mL in [3]; 3.13 µg/mL in series [4]; 0.05 µg/mL in series [5]; 0.78 µg/mL in series [6]. For the same compound, the MIC in series [7] was 0.0125 µg/mL; in [8] it was 0.78 µg/mL; in [9] it was 0.025 µg/mL; in [10], 0.05 µg/mL; in series [11], 0.0125 µg/mL. In addition, the ED50 was 0.235 mg/kg in [12] and 0.355 mg/kg in [13].
One may read the solubility as the dissolved amount per volume that the medium holds. A lower solubility goes with little dissolved substance. The compound `CNC[C@@H]1CN(c2nc3c(cc2F)c(=O)c(C(=O)O)cn3C2CC2)C[C@@H]1F` (relative stereo) [3-cis, 1-cyclopropyl-6-fluoro-7-(cis-4-fluoro-3-methylaminomethyl-1-pyrrolidinyl)-1,4-dihydro-4-oxo-1,8-naphthyridine-3-carboxylic acid] returned a solubility in [14] of 789 µg/mL (≈ 2090 µM).
As to `CCNC[C@@H]1CN(c2nc3c(cc2F)c(=O)c(C(=O)O)cn3C2CC2)C[C@H]1F.Cl` (relative stereo) [4-trans.HCl, 1-cyclopropyl-7-(trans-3-ethylaminomethyl-4-fluoro-1-pyrrolidinyl)-6-fluoro-1,4-dihydro-4-oxo-1,8-naphthyridine-3-carboxylic acid hydrochloride], the MIC in [1] was 0.05 µg/mL; in [2], 0.0125 µg/mL; in series [3], 0.025 µg/mL; in series [4] it was 3.13 µg/mL; in series [5], 0.05 µg/mL; in series [6], 0.78 µg/mL. Moreover, the MIC is 0.0125 µg/mL in [7]; 0.78 µg/mL in [8]; 0.025 µg/mL in series [9]; 0.05 µg/mL in series [10]; 0.0125 µg/mL in series [11]. Moreover, in [12], the ED50 was 0.267 mg/kg.
For `NC[C@@H]1CN(c2nc3c(cc2F)c(=O)c(C(=O)O)cn3C2CC2)C[C@@H]1F` (relative stereo) [Compound No. 1-cis, 7-(cis-3-aminomethyl-4-fluoro-1-pyrrolidinyl)-1-cyclopropyl-6-fluoro-1,4-dihydro-4-oxo-1,8-naphthyridine-3-carboxylic acid], the solubility in [14] was 927 µg/mL (≈ 2540 µM).
For `Cl.NC[C@@H]1CN(c2nc3c(cc2F)c(=O)c(C(=O)O)cn3C2CC2)C[C@@H]1F` (relative stereo) [Compound No. 1-cis.HCl, 7-(cis-3-aminomethyl-4-fluoro-1-pyrrolidinyl)-1-cyclopropyl-6-fluoro-1,4-dihydro-4-oxo-1,8-naphthyridine-3-carboxylic acid hydrochloride], the MIC was 0.0125 µg/mL in series [1]; 0.0125 µg/mL in [2]; 0.025 µg/mL in series [3]; 6.25 µg/mL in series [4]; 0.05 µg/mL in series [5]; 0.78 µg/mL in series [6]. Besides, the MIC is 0.0125 µg/mL in series [7]; 0.78 µg/mL in [8]; 0.025 µg/mL in series [9]; 0.05 µg/mL in series [10]; 0.025 µg/mL in [11]. For the same compound, the ED50 in [12] was 0.365 mg/kg; in [13] it was 0.274 mg/kg.
For the compound `Cl.NC[C@@H]1CN(c2nc3c(cc2F)c(=O)c(C(=O)O)cn3C2CC2)C[C@H]1F` (relative stereo) [Compound No. 1-trans.HCl, 7-(trans-3-aminomethyl-4-fluoro-1-pyrrolidinyl)-1-cyclopropyl-6-fluoro-1,4-dihydro-4-oxo-1,8-naphthyridine-3carboxylic acid hydrochloride], the MIC in series [1] was 0.025 µg/mL; in series [2] it was 0.0063 µg/mL; in [3], 0.025 µg/mL; in series [4], 3.13 µg/mL; in series [5], 0.05 µg/mL; in [6] it was 0.78 µg/mL. Besides, the MIC in series [7] was 0.0125 µg/mL; in series [8] it was 0.78 µg/mL; in series [9], 0.025 µg/mL; in series [10] it was 0.05 µg/mL; in series [11], 0.025 µg/mL.
The compound `NC[C@@H]1CN(c2nc3c(cc2F)c(=O)c(C(=O)O)cn3C2CC2)C[C@@H]1Cl` (relative stereo) [Compound No. 2-cis, 7-(cis-3-aminomethyl-4-chloro-1-pyrrolidinyl)-1-cyclopropyl-6-fluoro-1,4-dihydro-4-oxo-1,8-naphthyridine-3-carboxylic acid] displayed a solubility in [14] of 713 µg/mL (≈ 1870 µM).
`CCn1cc(C(=O)O)c(=O)c2cc(F)c(N3CCC(CN)C3)nc21.Cl` (stereo not drawn) [Compound A, 7-(3-aminomethyl-1-pyrrolidinyl)-1-ethyl-6-fluoro-1,4-dihydro-4-oxo-1,8-naphthyridine-3-carboxylic acid hydrochloride, reference compound]: the MIC in [1] was 0.39 µg/mL; in series [2] it was 0.39 µg/mL; in series [3] it was 0.1 µg/mL; in series [4], 50 µg/mL; in series [5], 0.78 µg/mL; in series [6], 12.5 µg/mL. Moreover, the MIC is 0.1 µg/mL in [7]; 6.25 µg/mL in [8]; 0.2 µg/mL in [9]; 0.39 µg/mL in series [10]; 0.39 µg/mL in series [11]. Also, the ED50 in [12] was 3.75 mg/kg; in [13] it was 2.79 mg/kg.
`Cl.NCC1CCN(c2nc3c(cc2F)c(=O)c(C(=O)O)cn3C2CC2)C1` (stereo not drawn) [Compound B, 7-(3-aminomethyl-1-pyrrolidinyl)-1-cyclopropyl-6-fluoro-1,4-dihydro-4-oxo-1,8-naphthyridine-3-carboxylic acid hydrochloride, reference compound]: the MIC in [1] is 0.05 µg/mL; in series [2], 0.025 µg/mL; in series [3], 0.05 µg/mL; in [4], 12.5 µg/mL; in series [5] it was 0.1 µg/mL; in series [6], 3.13 µg/mL. For the same compound, the MIC in series [7] is 0.025 µg/mL; in series [8] it was 3.13 µg/mL; in series [9], 0.025 µg/mL; in series [10], 0.1 µg/mL; in series [11], 0.05 µg/mL. The ED50 in [12] was 0.601 mg/kg; in series [13], 0.701 mg/kg.

These data come from patent US4738968A, “1,8-naphthyridine derivatives useful as anti-bacterial agents” (Dainippon Pharmaceutical Co., Ltd., priority 1985, dated 1988).
